Assay results taken from US10568868B2, “Methods and compositions for treating metabolic reprogramming disorders” (THE JOHNS HOPKINS UNIVERSITY, priority 2015, dated 2020).
Where two headings read alike, the source gives them in different places.

Tests used:
[1] = system: Neuromyelitis Optica; experiment: Neuromyelitis optica model (adoptive transfer of auto-reactive T cells); design: species or system mice; details: mouse, in vivo
Experimental: Auto-reactive T cells were adoptively transferred into mice treated with PBS or 25 and mean paralysis scores were measured.

[2] = system: 4T1-Luc tumor cells; experiment: 4T1-Luc mammary tumor model: myeloid cells, TAM and fibrocytes by flow cytometry; type: in vivo, BALB/c mice; details: 1 mg/kg daily from day 7 to day 17
Experimental: 4T1-Luc tumor cells (0.1 million) were injected into the mammary fat pads of 8-week-old female BALB/c mice. Mice received vehicle (PBS) or 1 mg/kg 25 daily from day 7 to day 17. Anti-PD1 antibody (5 mg/Kg) was administered i.p. on day 5, 8, 12 and 17. Percentages of myeloid-derived suppressor cell (MDSC) from circulating blood were monitored on day 6, 9 and 17 by flow cytometry with CD11b and Ly6C/Ly6G. Granulocytic MDSC (G-MDSC): CD11b+ Ly6g+ Ly6c low Monocytic MDSC (Mo-MDSC): CD11b+ Ly6G-Ly6c Hi.
4T1-Luc tumor cells (0.2 million) were injected into the mammary fat pads of 8-week-old female BALB/c mice. Mice received vehicle (PBS) or 1 mg/kg compound 25 daily from day 7 to day 17. Anti-PD1 antibody (5 mg/Kg) was administered on day 5, 8, 12 and 17. Tumors were evaluated for tumor infiltrating cells on day 21. Cells were seeded on plates and golgi plug 200 ul were added to inhibit cytokine secretion for overnight (no additional stimulation). Tumor associated macrophages markers: Live/CD45+/CD11b+/F4-80+/CD8− for flow cytometry analysis. Macrophages derived from tumor. The cells were incubated with Golgi plug o.n. w/o stim. TAM: Live/CD45+/CD11b+/F4-80+/CD8−.
4T1-Luc tumor cells (0.1 million) were injected into the mammary fat pads of 8-week-old female BALB/c mice. Mice received vehicle (PBS) or 1 mg/kg 25 daily from day 7 to day 17. Anti-PD1 antibody (5 mg/Kg) was administered on day 5, 8, 12 and 17. Tumors were evaluated for tumor infiltrating cells on day 21. Fibrocytes markers: CollagenI+CD11b+CD45+ live were used for flow cytometry analysis.

[3] = human microsomes
[4] = system: mouse model of asthma; experiment: Mouse model of asthma (House Dust Mite antigen sensitization and rechallenge); type: in vivo, mice; details: treated upon intratracheal rechallenge
Experimental: Mice were sensitized to House Dust Mite antigen (HDM) in the absence of drug. Upon intratracheal rechallenge the mice were treated with vehicle or 25.

[5] = system: EAE; experiment: Multiple sclerosis model (EAE, C57BL/6+MOG35-55); type: in vivo, mice
Experimental: FIG. 21A and FIG. 21B show the targeting of glutamine metabolism in multiple sclerosis. Animals were immunized for EAE (C57BL/6+MOG35-55). Mice were treated with vehicle or 25 either q.d. from the day of immunization (day 0, left), or b.d. from the time of disease onset (EAE disease score≥1, right).

[6] = pig microsomes

CCOC(=O)[C@H](CCC(=O)C=[N+]=[N-])NC(=O)[C@@H](N)CC(C)C [Compound 25]
mean paralysis scores [1]: unexpected effectiveness
CD11b+ cells and G-MDSCs in circulating blood ([2]; anti-PD1 antibody also given): reduced CD11b+ cells and G-MDSCs
TNF alpha in tumor associated macrophages ([2]; tumors evaluated day 21): increased TNF alpha
tumor infiltrating fibrocytes ([2]; tumors evaluated day 21): reduced fibrocytes
liver microsomal stability [3]: moderate-high stability
levels of HDM specific IgE [4]: reduced
lung pathology [4]: inhibited pathology
recruitment/generation of Th2 cells [4]: inhibited
EAE disease, treatment ([5]; b.d. from the time of disease onset (EAE disease score≥1)): unexpected effectiveness
EAE disease, prevention ([5]; q.d. from the day of immunization (day 0)): unexpected effectiveness
liver microsomal stability [6]: moderate-high stability
